Like-named read-outs stand apart in the source and are kept apart here. Blank lines part the entries; values can stand above or below the compound they belong to. Non-standard residues stand in square brackets, D forms with d. Residues, ends and D or L forms follow the SMILES beside them. Nle = CCCC[C@H](N)C(=O)O
Tests used:
[1] = tested on: acetylated p53 in H1299 cells; experiment: Acetylated p53 levels in H1299 cells cotransfected with p53 and p300 (western blot); type: cell-based, human; conditions: H1299 cells cotransfected with p53 and p300, 500 nM TSA vs not treated
Description: FIG. 2. TSA-insensitive deacetylation of p53 by mammalian Sir2α. (A) Colloidal blue staining of a SDS-PAGE gel containing protein Marker (lane 1), a control eluate from M2 loaded with untransfected cell extract (lane 2), and 100 ng of the highly purified Flag-tagged Sir2α recombinant protein (lane 3). (B) Deacetylation of p53 by Sir2α. […] NAD (50 μM) was also added in each reaction except lane 2. The proteins were analyzed by resolution on SDS-PAGE and autoradiography (upper) or Coomassie blue staining (lower). (C) Reduction of the steady-state levels of acetylated p53 by both mouse Sir2α and human SIRT1 expression. Western blot analysis of H1299 cell extracts from the cells cotransfected with p53 and p300 (lane 1), or in combination with Sir2α (lane 2), or in combination with hSIRT1 (lane 4), or Sir2α-355A (lane 3), or hSIRT1-363Y (lane 5), or hSIRT5 (lane 6), or PARP (lane 7) by acetylated p53-specific antibody (upper) or DO-1 for total p53 (lower). The highly conserved histidine residue at the core domain was replaced by alanine for mouse Sir2α (a.a. 355) Sir2α-355A), or replaced by tyrosine for human SIRT1 (a.a. 363) (hSIRT1-363Y). […]
(§1) After treatment, the cells were harvested for western blot analysis. […] The cell extracts were resolved by either 8% or 4-20% SDS-PAGE gels (Novex) and analyzed by western blot with α-p53(Ac)-C and α-p53(DO-1).

Sir2α = target: T1, Sir2α (Mus musculus, UniProt Q923E4); experiment: In vitro p53 deacetylation assay with purified Flag-tagged Sir2α; type: biochemical; conditions: 10 ng Sir2α, 50 μM NAD, 60 min at 30° C.; TSA 500 nM, nicotinamide 5 mM, 3-AB 3 mM
T1 construct: To construct Sir2α expression constructs, the full-length cDNA was subcloned from pET28a-Sir2α; Flag (N); made in house
T1 sequence (Q923E4 1-737): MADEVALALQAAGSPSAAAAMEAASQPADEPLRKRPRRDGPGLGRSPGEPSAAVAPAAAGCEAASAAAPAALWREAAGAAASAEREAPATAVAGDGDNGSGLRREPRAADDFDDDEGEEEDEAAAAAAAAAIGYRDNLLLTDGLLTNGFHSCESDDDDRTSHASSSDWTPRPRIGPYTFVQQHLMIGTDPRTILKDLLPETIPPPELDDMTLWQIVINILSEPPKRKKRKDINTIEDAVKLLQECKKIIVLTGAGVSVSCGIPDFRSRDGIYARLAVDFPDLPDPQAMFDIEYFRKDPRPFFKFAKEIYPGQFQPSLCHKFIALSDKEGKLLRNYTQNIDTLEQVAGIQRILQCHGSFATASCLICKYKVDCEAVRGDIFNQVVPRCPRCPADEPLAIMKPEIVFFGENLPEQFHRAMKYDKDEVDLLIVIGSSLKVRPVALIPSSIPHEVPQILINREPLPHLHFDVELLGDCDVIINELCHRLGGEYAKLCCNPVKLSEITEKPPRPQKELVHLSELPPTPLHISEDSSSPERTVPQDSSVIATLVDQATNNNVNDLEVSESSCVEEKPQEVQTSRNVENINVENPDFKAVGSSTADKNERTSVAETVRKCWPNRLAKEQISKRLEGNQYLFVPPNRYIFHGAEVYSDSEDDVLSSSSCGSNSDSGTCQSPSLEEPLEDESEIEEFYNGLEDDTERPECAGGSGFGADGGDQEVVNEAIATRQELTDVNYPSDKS
Description: FIG. 2. TSA-insensitive deacetylation of p53 by mammalian Sir2α. (A) Colloidal blue staining of a SDS-PAGE gel containing protein Marker (lane 1), a control eluate from M2 loaded with untransfected cell extract (lane 2), and 100 ng of the highly purified Flag-tagged Sir2α recombinant protein (lane 3). (B) Deacetylation of p53 by Sir2α. […] NAD (50 μM) was also added in each reaction except lane 2. The proteins were analyzed by resolution on SDS-PAGE and autoradiography (upper) or Coomassie blue staining (lower). (C) Reduction of the steady-state levels of acetylated p53 by both mouse Sir2α and human SIRT1 expression. Western blot analysis of H1299 cell extracts from the cells cotransfected with p53 and p300 (lane 1), or in combination with Sir2α (lane 2), or in combination with hSIRT1 (lane 4), or Sir2α-355A (lane 3), or hSIRT1-363Y (lane 5), or hSIRT5 (lane 6), or PARP (lane 7) by acetylated p53-specific antibody (upper) or DO-1 for total p53 (lower). The highly conserved histidine residue at the core domain was replaced by alanine for mouse Sir2α (a.a. 355) Sir2α-355A), or replaced by tyrosine for human SIRT1 (a.a. 363) (hSIRT1-363Y). […] The acetylated p53 levels in the cells cotransfected with p53 and p300 (lanes 1, 3), or cotransfected with p53, p300 and Sir2α (lanes 2, 4).
FIG. 3. Abrogation of mammalian Sir2α mediated deacetylation of p53 by nicotinamide. (A) Sir2α-mediated deacetylation of p53 is inhibited by nicotinamide. […] The proteins were analyzed by resolution on SDS-PAGE and autoradiography (upper) or Coomassie blue staining (lower). […]
The Flag-tagged Sir2α cells were established and expanded in DMEM medium, and cell extracts were prepared essentially as previously described (Luo et al., 2000; Gu et al., 1999). […] The eluted proteins were resolved by a SDS-PAGE gel and analyzed by colloidal blue staining (Novex). […] The reactions were resolved on SDS-PAGE and analyzed by Coomassie blue staining and autoradiography.

[2] = tested on: acetylated p53 in H460 cells; experiment: Acetylation levels of endogenous p53 in H460 cells during DNA damage response (western blot); type: cell-based, human; conditions: for acetylation level of p53, agent added to etoposide and TSA: etoposide + TSA + agent vs etoposide + TSA, nicotinamide 5 mM
Description: FIG. 3. […] 2.5 μg of ^14C-labeled acetylated p53 (lane 1) was incubated with 10 ng of purified Sir2α and 50 μM NAD alone (lane 2), or in the presence of either 5 mM of nicotinamide (lane 3) or 3 mM of 3-AB (3-aminobenzamide) (lane 4) for 60 min at 30° C. The proteins were analyzed by resolution on SDS-PAGE and autoradiography (upper) or Coomassie blue staining (lower). […] The cell extracts from untreated cells (lane 1), or treated with ALLN (50 μM) were also included (lane 6).
After treatment, the cells were harvested for western blot analysis. The rabbit polyclonal antibody specific for p300-mediated acetylated p53-[α-p53(Ac)-C] was raised and purified against the acetylated human p53 C-terminal peptide [p53 (Ac)-C: H-S55GQSTSRH55LMF-OH (5=acetylated Lysine)] as described before (Luo et al., 2000). In the case of cotransfection assays testing for p53 acetylation levels, H1299 cells were transfected with 5 μg of CMV-p53 plasmid DNA, 5 μg of CMV-p300 plasmid DNA, and 10 μg of pcDNA3—Sir2α plasmid DNA as indicated. […] The cell extracts were resolved by either 8% or 4-20% SDS-PAGE gels (Novex) and analyzed by western blot with α-p53(Ac)-C and α-p53(DO-1).

[3] = tested on: Sir2α-mediated deacetylation of endogenous p53 in MEF p53(+/+) cells; experiment: Sir2α-mediated deacetylation of endogenous p53 in pBabe-Sir2α infected MEF p53(+/+) cells (western blot); type: cell-based, mouse; conditions: etoposide and TSA in combination with nicotinamide, 6 hr
Description: FIG. 3. Abrogation of mammalian Sir2α mediated deacetylation of p53 by nicotinamide. (A) Sir2α-mediated deacetylation of p53 is inhibited by nicotinamide. 2.5 μg of ^14C-labeled acetylated p53 (lane 1) was incubated with 10 ng of purified Sir2α and 50 μM NAD alone (lane 2), or in the presence of either 5 mM of nicotinamide (lane 3) or 3 mM of 3-AB (3-aminobenzamide) (lane 4) for 60 min at 30° C. The proteins were analyzed by resolution on SDS-PAGE and autoradiography (upper) or Coomassie blue staining (lower). (B) Enhancement of endogenous p53 acetylation levels by nicotinamide. […] (C) The Sir2α-mediated deacetylation of endogenous p53 was abrogated in the presence of nicotinamide. […] The cell extracts from untreated cells (lane 1), or treated with ALLN (50 μM) were also included (lane 6).
Furthermore, we examined the effect of Sir2α expression on endogenous levels of acetylated p53. […] We first examined the protein levels of p53 activation in response to DNA damage in these cells by western blot analysis.
as §1

IMR-90 cells [4] = experiment: DNA damage-induced cell death by adriamycin in IMR-90 cells; type: cell-based, human; conditions: pBabe-hSIRT1-363Y infected vs mock infected IMR-90 cells, different concentrations of adriamycin, 48 hr
Description: (§2) Both mock infected cells and pBabe-hSIRT1-363Y infected cells were either not treated (I and III) or treated with 50 μM H2O2 (II and IV) (E), or treated with different concentrations of adriamycin as indicated. 48 hr later, the cells were collected for analysis (D).
(§3) IMR-90 cells were infected with either a pBabe retrovirus empty vector or a pBabe retrovirus containing hSIRT1-363Y, and cultured for a week under pharmacological selection.

IMR-90 cells [5] = tested on: IMR-90 cells
Description: The cells were analyzed for apoptotic cells (subG1) according to DNA content (PI staining). […] Cells were either not treated (I) or treated with 100 μM H2O2 (II, III, IV) for 24 hr. […] Both mock infected cells and pBabe-Sir2α infected cells were either not treated (I and III) or treated with 200 μM H2O2 (II and IV). 24 hr later, the cells were photographed under a microscope.
as §2
IMR-90 cells were infected with either a pBabe retrovirus empty vector or a pBabe retrovirus containing Sir2α, and cultured for a week under pharmacological selection.
as §3
After one-week selection, the cells were either frozen for stock or immediately used for further analysis.

SMILES: NC(=O)c1cccnc1 [nicotinamide]
- effect on Sir2α-mediated deacetylation of endogenous p53 [3]: completely abrogated
- effect on Sir2α-mediated deacetylation of 14C-labeled acetylated p53 (Sir2α): completely inhibited
- acetylation level of p53, agent added to etoposide and TSA ([2]; 6 hr): super induction
- cellular levels of acetylated p53 induced by DNA damage ([2]; etoposide plus nicotinamide vs etoposide alone): enhanced

SMILES: COc1cccc2c1C(=O)c1c(O)c3c(c(O)c1C2=O)C[C@@](O)(C(=O)CO)C[C@@H]3O[C@H]1C[C@H](N)[C@H](O)[C@H](C)O1 [adriamycin]
- sensitivity to DNA damage-induced cell death (IMR-90 cells [4]): much more sensitive

SMILES: OO [H2O2, hydrogen peroxide]
- cells being killed (IMR-90 cells [5]; mock (pBabe-vector) infected IMR-90 cells, 200 μM H2O2, 24 hr): more than 80%
- susceptibility to H2O2-induced cell death (IMR-90 cells [5]; mock infected IMR-90 cells, 50 μM H2O2): relatively resistant
- cells surviving (IMR-90 cells [5]; pBabe-Sir2α infected IMR-90 cells, 200 μM H2O2, 24 hr): about 70%
- cells surviving (IMR-90 cells [5]; pBabe-hSIRT1-363Y infected IMR-90 cells, 50 μM H2O2): less than 30%

SMILES: CCCC[C@@H](C=O)NC(=O)[C@H](CC(C)C)NC(=O)[C@H](CC(C)C)NC(C)=O [ALLN] (Ac-Leu-Leu-[Nle]-aldehyde)
- acetylation of p53, single agent vs untreated cells ([2]; 6 hr, etoposide 20 μM, ALLN 50 μM): no significant p53 acetylation was detected

Now from value to compound, other results behind:

- effect on Sir2α-mediated deacetylation of 14C-labeled acetylated p53 (Sir2α): no apparent effect
SMILES: CC(/C=C/C(=O)NO)=C\[C@@H](C)C(=O)c1ccc(N(C)C)cc1 [TSA, Trichostatin A]
- steady state level of acetylated p53 [1]: elevated
- acetylation level of p53 during DNA damage response, agent added to etoposide ([2]; 6 hr, etoposide plus TSA (0.5 μM) vs etoposide alone): mild enhancement

- effect on Sir2α-mediated deacetylation of 14C-labeled acetylated p53 (Sir2α): no significant effect
SMILES: NC(=O)c1cccc(N)c1 [3-AB, 3-aminobenzamide]
- acetylation level of p53, agent added to etoposide and TSA ([2]; 6 hr): no effect
